Source: US20060281764A1, “AMINOPYRIMIDINES AS KINASE MODULATORS” (priority 2005, published 2006)

Columns and labels:
TrkB = target: T1, TrkB (Homo sapiens, UniProt Q16620); test: Trk B Fluorescence Polarization Kinase Assay; format: biochemical; conditions: FP assay, 150 uM ATP, 50 nM TrkB; uncertainty ±10%
T1 construct: purchased Upstate 14-507M
Method: The compounds of the present invention are also specific inhibitors of TrkB. Selection of preferred compounds of Formula I for use as TrkB inhibitors was performed in the following manner. The TrkB assay utilized the fluorescein-labeled phosphopeptide and the anti-phosphotyrosine antibody included in the Panvera Phospho-Tyrosine Kinase Kit (Green) supplied by Invitrogen. When TrkB phosphorylated poly Glu4Tyr, the fluorescein-labeled phosphopeptide was displaced from the anti-phosphotyrosine antibody by the phosphorylated poly Glu4Tyr, thus decreasing the FP value. The TrkB kinase reaction was incubated at room temperature for 30 minutes under the following conditions: 50 nM TrkB (Upstate, catalog # 14-507M), 20 ug/mL poly Glu4Tyr, 150 uM ATP, 5 mM MgCl2, 1% compound in DMSO. The kinase reaction was stopped with the addition of EDTA. The fluorescein-labeled phosphopeptide and the anti-phosphotyrosine antibody were added and incubated for 30 minutes at room temperature. Data points were an average of triplicate samples. Inhibition and IC50 data analysis were done with GraphPad Prism using a non-linear regression fit with a multiparamater, sigmoidal dose-response (variable slope) equation.

[1] = target: T2, isolated kinase domain of the human c-kit receptor (Homo sapiens, UniProt P10721); test: c-Kit Fluorescence Polarization Kinase Assay; format: biochemical; conditions: FP assay, 50 uM ATP, 1 nM c-kit; uncertainty ±10%
T2 construct: isolated kinase domain of the human c-kit receptor; purchased ProQinase lot SP005
Method: The compounds of the present invention are also specific inhibitors of c-Kit. Selection of preferred compounds of Formula I for use as c-Kit inhibitors was performed in the following manner using an in vitro kinase assay to measure inhibition of the isolated kinase domain of the human c-kit receptor in a fluorescence polarization (FP) protocol. The c-kit assay utilized the fluorescein-labeled phosphopeptide and the anti-phosphotyrosine antibody included in the Panvera Phospho-Tyrosine Kinase Kit (Green) supplied by Invitrogen. When c-kit phosphorylated the poly Glu4Tyr, the fluorescein-labeled phosphopeptide was displaced from the anti-phosphotyrosine antibody by the phosphorylated poly Glu4Tyr, thus decreasing the FP value. The c-kit kinase reaction was incubated at room temperature for 45 minutes under the following conditions: 1 nM c-kit (ProQinase, lot SP005), 100 ug/mL poly Glu4Tyr, 50 uM ATP, 5 mM MgCl2, 1 mM DTT, 0.01% Tween-20, 1% DMSO or compound in […], pH 7.5. The kinase reaction was stopped with the addition of EDTA. The fluorescein-labeled phosphopeptide and the anti-phosphotyrosine antibody were added and incubated for 30 minutes at room temperature and fluorescence polarization was read. Data points were an average of triplicate samples. […]

[2] = target: T3, FLT ligand-induced wild-type FLT3 phosphorylation in Baf3 FLT3 cells (Homo sapiens, UniProt P36888); test: Cell-Based FLT3 Receptor Elisa (Baf3 FLT3 cells); conditions: 1 hour compound incubation, 100 ng/mL Flt ligand, uncertainty ±20%
T3 construct: host or cells: Baf3 (murine B cell lymphoma line)
T3 sequence (P36888 27-993): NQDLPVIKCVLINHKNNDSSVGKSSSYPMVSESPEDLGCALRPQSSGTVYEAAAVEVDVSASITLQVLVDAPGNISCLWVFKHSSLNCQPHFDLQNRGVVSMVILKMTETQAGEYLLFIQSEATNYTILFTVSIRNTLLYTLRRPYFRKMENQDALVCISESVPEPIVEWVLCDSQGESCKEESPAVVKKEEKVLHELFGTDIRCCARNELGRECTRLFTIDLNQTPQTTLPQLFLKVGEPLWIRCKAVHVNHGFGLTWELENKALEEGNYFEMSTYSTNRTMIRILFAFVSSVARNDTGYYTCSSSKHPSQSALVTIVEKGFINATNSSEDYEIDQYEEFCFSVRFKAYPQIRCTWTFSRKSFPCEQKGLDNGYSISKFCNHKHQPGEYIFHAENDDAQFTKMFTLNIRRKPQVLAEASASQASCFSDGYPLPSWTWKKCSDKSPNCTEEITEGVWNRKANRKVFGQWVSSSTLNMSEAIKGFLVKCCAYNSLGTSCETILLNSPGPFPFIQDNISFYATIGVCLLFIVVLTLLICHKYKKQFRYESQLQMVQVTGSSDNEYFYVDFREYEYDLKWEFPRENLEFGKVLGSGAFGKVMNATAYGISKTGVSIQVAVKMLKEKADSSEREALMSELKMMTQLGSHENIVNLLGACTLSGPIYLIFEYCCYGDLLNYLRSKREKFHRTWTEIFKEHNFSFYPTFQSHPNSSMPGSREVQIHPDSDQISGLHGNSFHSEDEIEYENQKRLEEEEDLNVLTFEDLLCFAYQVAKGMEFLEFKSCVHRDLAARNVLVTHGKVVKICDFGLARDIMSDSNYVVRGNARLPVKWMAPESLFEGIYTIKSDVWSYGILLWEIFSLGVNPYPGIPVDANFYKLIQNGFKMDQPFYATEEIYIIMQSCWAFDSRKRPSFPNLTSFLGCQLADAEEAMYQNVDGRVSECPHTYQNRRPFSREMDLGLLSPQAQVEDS
Method: Specific cellular inhibition of FLT ligand-induced wild-type FLT3 phosphorylation was measured in the following manner: Baf3 FLT3 cells overexpressing the FLT3 receptor were obtained from Dr. Michael Heinrich (Oregon Health and Sciences University). The Baf3 FLT3 cell lines were created by stable transfection of parental Baf3 cells (a murine B cell lymphoma line dependent on the cytokine IL-3 for growth) with wild-type FLT3. Cells were selected for their ability to grow in the absence of IL-3 and in the presence of FLT3 ligand.
Baf3 cells were maintained in RPMI 1640 with 10% FBS, penn/strep and 10 ng/ml FLT ligand at 37° C., 5% CO2. To measure direct inhibition of the wild-type FLT3 receptor activity and phosphorylation a sandwich ELISA method was developed similar to those developed for other RTKs (3,4). 200 μL of Baf3FLT3 cells (1×10^6/mL) were plated in 96 well dishes in RPMI 1640 with 0.5% serum and 0.01 ng/mL IL-3 for 16 hours prior to 1 hour compound or DMSO vehicle incubation. Cells were treated with 100 ng/mL Flt ligand (R&D Systems Cat# 308-FK) for 10 min. at 37° C. Cells were pelleted, washed and lysed in 100 ul lysis buffer (50 mM Hepes, 150 mM NaCl, 10% Glycerol, 1% Triton —X-100, 10 mM NaF, 1 mM EDTA, 1.5 mM MgCl2, 10 mM NaPyrophosphate) supplemented with phosphatase (Sigma Cat# P2850) and protease inhibitors (Sigma Cat #P8340). […]

T1 sequence (Q16620 32-822): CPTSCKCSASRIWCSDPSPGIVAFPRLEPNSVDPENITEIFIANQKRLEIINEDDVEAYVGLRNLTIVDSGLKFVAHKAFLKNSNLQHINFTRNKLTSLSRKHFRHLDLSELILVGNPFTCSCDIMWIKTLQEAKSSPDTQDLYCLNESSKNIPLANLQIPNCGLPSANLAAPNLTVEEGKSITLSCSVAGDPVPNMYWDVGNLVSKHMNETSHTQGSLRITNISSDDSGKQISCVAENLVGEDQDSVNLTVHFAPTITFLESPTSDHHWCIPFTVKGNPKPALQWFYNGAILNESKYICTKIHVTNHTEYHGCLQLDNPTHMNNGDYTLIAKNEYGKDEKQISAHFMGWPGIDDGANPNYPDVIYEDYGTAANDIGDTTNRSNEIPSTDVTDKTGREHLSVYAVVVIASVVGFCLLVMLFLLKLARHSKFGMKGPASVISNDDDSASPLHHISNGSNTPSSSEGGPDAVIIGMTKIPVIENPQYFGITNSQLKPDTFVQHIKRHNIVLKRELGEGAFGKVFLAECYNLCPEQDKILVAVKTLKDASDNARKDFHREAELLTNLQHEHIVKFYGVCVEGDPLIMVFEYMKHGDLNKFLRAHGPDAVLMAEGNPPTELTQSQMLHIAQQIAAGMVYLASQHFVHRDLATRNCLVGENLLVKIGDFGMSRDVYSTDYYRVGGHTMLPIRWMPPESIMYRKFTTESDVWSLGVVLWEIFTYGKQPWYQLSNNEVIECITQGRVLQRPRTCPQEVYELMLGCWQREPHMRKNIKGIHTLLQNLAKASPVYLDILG
T2 sequence (P10721 589-937 limits assumed): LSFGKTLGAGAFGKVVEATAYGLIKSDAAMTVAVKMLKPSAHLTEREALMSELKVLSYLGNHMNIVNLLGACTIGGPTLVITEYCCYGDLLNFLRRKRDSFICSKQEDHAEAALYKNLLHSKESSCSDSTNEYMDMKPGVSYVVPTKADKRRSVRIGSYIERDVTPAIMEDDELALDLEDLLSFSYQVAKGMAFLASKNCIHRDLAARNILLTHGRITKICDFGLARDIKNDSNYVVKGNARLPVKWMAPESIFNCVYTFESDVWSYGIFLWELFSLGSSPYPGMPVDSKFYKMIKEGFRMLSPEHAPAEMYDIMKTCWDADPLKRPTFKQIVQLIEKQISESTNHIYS

| Compound | IC50 (TrkB) [µM] | IC50 [1] [µM] | IC50 [2] [µM] |
| --- | --- | --- | --- |
| CO/N=C/c1c(N)ncnc1N1CCC(NC(=O)Nc2ccc(OC3CCC3)nc2)CC1 [Example 15, 1-{1-[6-Amino-5-(methoxyimino-methyl)-pyrimidin-4-yl]-piperidin-4-yl}-3-(6-cyclobutoxy-pyridin-3-yl)-urea] | > 42 | – | – |
| CO/N=C/c1c(N)ncnc1N1CCC(NC(=O)Nc2ccc(N3CCCCC3)cc2)CC1 [Example 13, 1-{1-[6-Amino-5-(methoxyimino-methyl)-pyrimidin-4-yl]-piperidin-4-yl}-3-(4-piperidin-1-yl-phenyl)-urea] | 2.9 | – | – |
| CCO/N=C/c1c(N)ncnc1N1CCC(OC(=O)Nc2ccc(OC(C)C)cc2)CC1 [Example 2, (4-Isopropoxy-phenyl)-carbamic acid 1-[6-amino-5-(ethoxyimino-methyl)-pyrimidin-4-yl]-piperidin-4-yl ester] | > 42 | 0.38 | – |
| CO/N=C/c1c(N)ncnc1N1CCC(NC(=O)Nc2ccc(N3CCOCC3)cc2)C1 (stereo not shown) [Example 10, 1-{1-[6-Amino-5-(methoxyimino-methyl)-pyrimidin-4-yl]-pyrrolidin-3-yl}-3-(4-morpholin-4-yl-phenyl)-urea] | 32.1 | – | – |
| CC(C)Oc1ccc(NC(=O)OC2CCN(c3ncnc(N)c3/C=N/OCCN3CCOCC3)CC2)cc1 [Example 3, (4-Isopropoxy-phenyl)-carbamic acid 1-{6-amino-5-[(2-morpholin-4-yl-ethoxyimino)-methyl]-pyrimidin-4-yl}-piperidin-4-yl ester] | > 42 | – | – |
| CO/N=C/c1c(N)ncnc1N1CCC(NC(=O)Nc2ccc(N3CCOCC3)cc2)CC1 [Example 14, 1-{1-[6-Amino-5-(methoxyimino-methyl)-pyrimidin-4-yl]-piperidin-4-yl}-3-(4-morpholin-4-yl-phenyl)-urea] | 15.6 | – | – |
| CO/N=C/c1c(N)ncnc1N1CCC(NC(=O)Nc2ccc(N3CCCCC3)cc2)C1 (stereo not shown) [Example 9, 1-{1-[6-Amino-5-(methoxyimino-methyl)-pyrimidin-4-yl]-pyrrolidin-3-yl}-3-(4-piperidin-1-yl-phenyl)-urea] | 11.9 | – | – |
| CO/N=C/c1c(N)ncnc1N1CCC(NC(=O)Nc2ccc(OC3CCC3)nc2)C1 (stereo not shown) [Example 11, 1-{1-[6-Amino-5-(methoxyimino-methyl)-pyrimidin-4-yl]-pyrrolidin-3-yl}-3-(6-cyclobutoxy-pyridin-3-yl)-urea] | 4.2 | – | – |
| CC(C)Oc1ccc(NC(=O)OC2CCN(c3ncnc(N)c3/C=N/OCCCN(C)C)CC2)cc1 [Example 4, (4-Isopropoxy-phenyl)-carbamic acid 1-{6-amino-5-[(3-dimethylamino-propoxyimino)-methyl]-pyrimidin-4-yl}-piperidin-4-yl ester] | > 42 | – | 0.345 |

The remaining lines, values ahead:

| IC50 (TrkB) [µM] | IC50 [1] [µM] | IC50 [2] [µM] | Compound |
| --- | --- | --- | --- |
| 2.16 | – | – | CO/N=C/c1c(N)ncnc1N1CCC(CC(=O)Nc2ccc(C(C)C)cc2)CC1 [Example 7, 2-{1-[6-Amino-5-(methoxyimino-methyl)-pyrimidin-4-yl]-piperidin-4-yl}-N-(4-isopropyl-phenyl)-acetamide] |
| 23.9 | – | – | CO/N=C/c1c(N)ncnc1N1CCC(OC(=O)Nc2ccc(C(C)C)cc2)CC1 [Example 5, (4-Isopropyl-phenyl)-carbamic acid 1-[6-amino-5-(methoxyimino-methyl)-pyrimidin-4-yl]-piperidin-4-yl ester] |
| 14.2 | – | – | CO/N=C/c1c(N)ncnc1N1CCC(NC(=O)Nc2ccc(OC(C)C)cc2)C1 (stereo not shown) [Example 8, 1-{1-[6-Amino-5-(methoxyimino-methyl)-pyrimidin-4-yl]-pyrrolidin-3-yl}-3-(4-isopropoxy-phenyl)-urea] |
| 0.3 | 0.016 | – | CO/N=C/c1c(N)ncnc1N1CCC(CC(=O)Nc2ccc(C(C)C)cc2)C1 (stereo not shown) [Example 6, 2-{1-[6-Amino-5-(methoxyimino-methyl)-pyrimidin-4-yl]-pyrrolidin-3-yl}-N-(4-isopropyl-phenyl)-acetamide] |
| 29.4 | – | – | CO/N=C/c1c(N)ncnc1N1CCC(OC(=O)Nc2ccc(OC(C)C)cc2)CC1 [Example 1, (4-Isopropoxy-phenyl)-carbamic acid 1-[6-amino-5-(methoxyimino-methyl)-pyrimidin-4-yl]-piperidin-4-yl ester] |
| 7.4 | – | – | CO/N=C/c1c(N)ncnc1N1CCC(NC(=O)Cc2ccc(C(C)C)cc2)CC1 [Example 16, N-{1-[6-Amino-5-(methoxyimino-methyl)-pyrimidin-4-yl]-piperidin-4-yl}-2-(4-isopropyl-phenyl)-acetamide] |
| 8.5 | – | – | CO/N=C/c1c(N)ncnc1N1CCC(NC(=O)Nc2ccc(OC(C)C)cc2)CC1 [Example 12, 1-{1-[6-Amino-5-(methoxyimino-methyl)-pyrimidin-4-yl]-piperidin-4-yl}-3-(4-isopropoxy-phenyl)-urea] |
